The text below walks through data of US20060074048A1, “Mixed esters of hyaluronic acid with retinoic and butyric acids” (priority 2002, published 2006).

Molecules are shown by their SMILES.

Type in all cases: cell-based, human
Assay [1] relates to promyelo/monocytic cell line U937. Put plainly: MTT cell proliferation, U937. Conditions: for growth inhibition by free active principle: stated in the U937/HL-60 context. Here is the method:
MCF7, U937, HL-60 and HT29 cell lines were purchased from the American […] Culture Collection (Rockville, […].). MCF7 cells were grown in DMEM/F12 supplemented with 5% FBS, while U937 and HL-60 were grown in RPMI-1640 supplemented with 10% (v/v) foetal bovine serum.
Approximately 1000 cells (MCF7 and HT29) and 500 cells (U937 and HL-60) per well were used in 96-well plates and were treated as indicated in the examples. At the end of the experiment, the anti-proliferative effect was measured with 3-(4,5-dimethylthiazol-2-yl)-2,5-diphenyltetrazolium bromide (MTT). The blank value, corresponding to wells containing all the components but cells, was subtracted from the absorbance values obtained.

Assay [2] shares this test system. Put plainly: Cell cycle perturbation by flow cytometry, U937. The settings on record: U937, 3 days; mixed ester 0.1 mg/ml, BA 0.2 mM, RA 10^−5 M. Here is the method: The evaluation was performed by flow cytometry (panels a, b, c) after 6 days of continuous treatment with mixed ester at 0.1 or 1 mg/ml concentrations and was compared with the effect on cell growth determined by a colorimetric method (MTT), described by the curve -●-.
The effect on cell cycle and on cell proliferation has been assessed. The assessment has been performed by flow cytometry after 3 days of treatment with the mixed ester of the invention at 0.1 mg/ml concentration, or with butyric acid or retinoic acid at concentrations of 0.2 mM and 10^−5 M, respectively. Cell cycle perturbations induced by these compounds are related to the effect on cell proliferation (ordinate axis) exerted by identical concentrations of the drugs and expressed as percentage of the control (CTR) represented by cells cultured in medium alone. […] CTR: control. Panel a): (Go=45%; S=46%), panel b): (Go=44%; S=45%); panel c) (Go=43%; S=45%); panel d): (Go=72%; S=22%); panel e) (Go=41%; S=46%), panel f): (Go=94%; S=2%).
To evaluate cell cycle alterations, cells were re-suspended in a solution containing only propidium iodide, Rnase and Nonidet P40 and the fluorescence was measured using a FACScan flow cytometer.

Assay [3] deals with U937 cells. Put plainly: Expression of membrane antigens by flow cytometry (FACS), U937. The settings on record: U937, 3 days; mixed ester 0.1 mg/ml, butyric acid 0.2 mM, retinoic acid 10^−5M. How it is done:
Expression of CD44, CD11a, CD11b, CD18 antigens was measured with specific murine monoclonal antibodies and secondary anti-mouse antibodies conjugated to FITC. After immunofluorescence, cells were incubated in a solution containing propidium iodide (PI) (5 mg/ml), Rnase (10 kU/ml), and Nonidet P40 (0.005%). The fluorescence relative to PI was measured using a FACScan flow cytometer (Becton Dickinson) equipped with an argon laser at 488 nm excitation wavelength and a 610 nm filter. The fluorescence signal was collected in linear and logaritmic modes. Data were evaluated using the LYSIS II software.
To check whether the block of cell growth was accompanied by activation of differentiation, the selected experimental model consists of the U937 promyelo/monocytic cell line, in which the effect of mixed esters on a series of myelocyte/macrophage specific differentiation markers (CD11a, CD11b and CD18) has been studied. The resulting effect has been directly compared with that of the two active principles. […] The results have been compared with those obtained with butyric and retinoic acids at the same concentrations as in the mixed ester (respectively 0.2 mM and […]). Since the time of treatment was reduced to 3 days in these experiments, the effects on growth and cell cycle were also measured.
In table 2 are indicated the percentages of expression measured by FACS of some membrane antigens in U937 cells treated with the esters of the invention and with the two non-esterified active principles. For each treatment the control has been repeated and is then indicated by the respective superscript.
The evaluation was performed by flow cytometry after that the promyelo/monocytic U937 cell line was treated for 3 days with mixed ester at 0.1 mg/ml concentration, butyric acid at 0.2 mM concentration or retinoic acid at 10^−5M concentration. Human lymphocytes were used as negative control for the expression of the antigen under examination.

With `CCCC(=O)O` [butyric acid, Butyric Acid], the “growth inhibition by free active principle” value in assay [1] (BA 2 mM) is on record as ~100%. Besides, in assay [1] (U937, 3 days, BA 0.2 mM, RA 10^−5 M), the “anti-proliferative effect and cell cycle block” value is “totally ineffective”. Moreover, in assay [2], the “cells blocked in G0/1 (Go) phase” value turned out to be 44% and the “cells in S phase” value came to 45%. For the same compound, in assay [3], the CD11a expression turned out to be 76%, the CD11b expression is 17%, the CD18 expression turned out to be 82% and the CD44 expression was 91%.

`CC1=C(/C=C/C(C)=C/C=C/C(C)=C/C(=O)O)C(C)(C)CCC1` [retinoic acid, Retinoic acid]: the “growth inhibition by free active principle” value in assay [1] (RA 10^−4 M) is reported as ~100%. In assay [2], the “cells blocked in G0/1 (Go) phase” value is listed as 94% and the “cells in S phase” value is on record as 2%. In assay [3], this compound came in with a CD11a expression of 91%, a CD11b expression of 28%, a CD18 expression of 83% and a CD44 expression of 97%.
